From US11541084B2, “Method of promoting bone regrowth” (GENMONT BIOTECH INC., priority 2017, dated 2023)

Tests used:
Type in all cases: in vivo, mice (ICR female)
[1] = test system: ovariectomized (OVX) mice; test: Bone tissue analysis by micro computed tomography of the femur in the osteoporosis mouse model; conditions: right femur, tube feed for 28 days, mean ±SD
Protocol: Experiment 1: Bone tissue analysis
(1) preparation of viable bacteria: Inoculating the Lactobacillus plantarum GMNL-662 from a frozen tube to 1 ml of MRS broth, and standing under 37° C. for aerobically incubating for 20 hours. The next day, adding 15 μl culture solution into 1.5 ml of MRS broth (1% secondary activation), and then standing under 37° C. for aerobically incubating for 20 hours. Estimating the bacteria number by using OD 600 to adjust the bacteria concentration to 8×10^7 CFU/ml.
(2) preparation of dead bacteria: Inoculating the Lactobacillus Plantarum strain GMNL-662 from a frozen tube to 1 ml of MRS broth, and standing under 37° C. for aerobically incubating for 20 hours. The next day, adding 15 μl culture solution into 1.5 ml of MRS broth (1% secondary activation), and then standing under 37° C. for aerobically incubating for 20 hours. Estimating the bacteria number by using OD 600 to adjust the bacteria concentration to 4.1×10^8 CFU/ml.
8-week-old ICR female […] were purchased from BioLASCO Taiwan and ovariectomy was performed when they were 9 week-old. Mice were underwent anesthesia and were ovariectomized through back on both sides of the ovaries. All groups were given the test substance by means of tube feed at 4 days after surgery. The groups were divided into a sham operation group (control group, their abdominal cavity were cut but their ovaries were not removed); and 4 groups ovariectomized group (Ovariectomy; OVX). When the mice were sacrificed, the ovarian tissues were checked and confirmed whether the removal of ovarian was successful. The experimental results of the mice under failure operation were not used. […] The mice were given 0.1 ml per 10 grams of body weight and 4 times a week. The remaining two groups were fed with 0.2 ml of alive GMNL-662 (strain concentration is 8×10^7 cfu/ml; daily dose of the mouse is 1.6×10^7 cfu/mouse, the human dose is 4×10^9 cfu/60 kg adult), and 0.2 ml of dead GMNL-662 (strain concentration is 4.1×10^8 cfu/ml; daily dose of the mouse is 8.2×10^7 cells/mouse, the human dose is 2×10^10 cells/60 kg adult). The two groups were fed with tube one time every day, continued for 28 days, the mice were anesthetized and sacrificed for intraperitoneal cephalic vein sampling, and each femur was removed for analysis.
The backbone of the right femur far from the end was taken a computer tomography by a micro computed tomography (SkyScan 1076, Kontizh, Belgium, with resolution of 18 μm), and the trabecular bone volume ratio (i.e. bone volume/tissue volume) is analyzed by a software. The analyzed position was selected to include the area of 100 pieces under the growth plate excluding cortical bone. The bone mineral density analysis was applied to the same area. The obtained data in the experiments were analyzed with two-way analysis of variance, and executed T-test statistical analysis. All data were presented as mean ±SD. After comparisons, the abovementioned groups were analyzed statistically and noted by different marks to represent the statistically significant differences (* represents p<0.05; ** represents p<0.01).

cytokine TGF-β = test: Real-time PCR of bone cDNA from OVX mice: TGF-β expression; conditions: bone RNA of OVX mice after 28 days of tube feed; compared with disease group (OVX+H2O)
Protocol: (§1) 8-week-old ICR female rats were purchased from BioLASCO Taiwan and ovariectomy was performed when they were 9 week-old. Mice were underwent anesthesia and were ovariectomized through back on both sides of the ovaries. All groups were given the test substance by means of tube feed at 4 days after surgery. The groups were divided into a sham operation group (control group, their abdominal cavity were cut but their ovaries were not removed); and 4 groups ovariectomized group (Ovariectomy; OVX). When the mice were sacrificed, the ovarian tissues were checked and confirmed whether the removal of ovarian was successful. The experimental results of the mice under failure operation were not used. […]
(§2) Extraction of tibial RNA: The left femur of the mice were removed, cut into small pieces with scissor, and an appropriate amount of liquid nitrogen was added to grind the bones quickly. […] The solution was placed at room temperature to react for 5 minutes, followed by centrifugalized and extracted the upper layer to new microcentrifuge tubes (eppendorf); 0.25 ml isopropanol was added thereto and the solution was placed at room temperature for 10 minutes and then centrifugalized; the supernatant was removed and the precipitate was washed with 0.5 ml 75% ethanol; after the precipitate was dried, 20-50 μl DEPC water was added to dissolve the precipitate and the RNA concentration was measured. […]

osteocalcin gene = test: Real-time PCR of bone cDNA from OVX mice: osteocalcin expression; conditions: bone RNA of OVX mice after 28 days of tube feed; compared with disease group (OVX+H2O)
Protocol: as §1, §2

[2] = test system: osteoclast related gene TRAP-5; test: Real-time PCR of bone cDNA from OVX mice: TRAP-5 expression; conditions: bone RNA of OVX mice after 28 days of tube feed; compared with disease group (OVX+H2O)
Protocol: as §1, §2

[3] = * p<0.05, ** p<0.01, disease group OVX+H2O 0.344 ± 0.04, sham control 0.502 ± 0.04
[4] = * p<0.05, ** p<0.01, disease group OVX+H2O 30.9 ± 1.1, sham control 42.12 ± 2.4

Row | Substance | Femur bone mineral density (BMD, excluding cortical bone) [1, 3] | Femur bone mineral density (BMD, excluding cortical bone) ([1]; * p<0.05, ** p<0.01, disease group OVX+H2O 0.344 ± 0.04, sham control 0.502 ± 0.04, listed as alive GMNL-662) | Trabecular bone volume ratio (BV/TV, bone volume/tissue volume) [1, 4] | Trabecular bone volume ratio (BV/TV, bone volume/tissue volume) ([1]; * p<0.05, ** p<0.01, disease group OVX+H2O 30.9 ± 1.1, sham control 42.12 ± 2.4, listed as alive GMNL-662) | expression of cytokine TGF-β (relative to GAPDH), FIG. 1 (cytokine TGF-β) | expression of osteocalcin gene, FIG. 2 (osteocalcin gene) | expression of osteoclast related gene TRAP-5, FIG. 3 [2] | Femur bone mineral density (BMD, excluding cortical bone) ([1]; * p<0.05, ** p<0.01, disease group OVX+H2O 0.344 ± 0.04, sham control 0.502 ± 0.04, listed as dead GMNL-662) | Trabecular bone volume ratio (BV/TV, bone volume/tissue volume) ([1]; * p<0.05, ** p<0.01, disease group OVX+H2O 30.9 ± 1.1, sham control 42.12 ± 2.4, listed as dead GMNL-662)
1 | Lactobacillus plantarum strain GMNL-662 [GMNL-662 alive] | 0.488 ± 0.02** g/cm^3 | significantly higher | 36.92 ± 1.7** % | higher than the disease group | significant increased expression | higher than the disease group | significantly lower |  | 
2 | Lactobacillus plantarum strain GMNL-662 [GMNL-662 dead] | 0.474 ± 0.01** g/cm^3 |  | 36.8 ± 1.2** % |  | significant increased expression | higher than the disease group | significantly lower | significantly higher | higher than the disease group
